Bounds are passed on as bounds.

The target in this assay is T1, recombinant human KLK5 (Homo sapiens, UniProt Q9Y337).
T1 construct: purchased Novoprotein or R&D Systems C415 or 1108-SE
T1 sequence (Q9Y337 23-293): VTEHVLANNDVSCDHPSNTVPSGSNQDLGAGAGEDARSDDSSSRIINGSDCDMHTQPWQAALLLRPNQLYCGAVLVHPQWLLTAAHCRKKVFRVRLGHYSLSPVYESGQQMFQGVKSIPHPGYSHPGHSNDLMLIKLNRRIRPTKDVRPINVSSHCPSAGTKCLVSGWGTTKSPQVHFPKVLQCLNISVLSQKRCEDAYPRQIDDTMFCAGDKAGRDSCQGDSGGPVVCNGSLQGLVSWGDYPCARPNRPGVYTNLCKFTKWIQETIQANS
Kind of assay: Kallikrein (KLK) 5 enzymatic assay (Boc-VPR-AMC fluorogenic substrate). The settings on record: recombinant human KLK5 0.1 μg/well, Boc-VPR-AMC 100 μM, pH 7.5, room temperature, 1% DMSO; tested a minimum of three times. Format: biochemical. In short, it runs like this: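 Fluorogenic rate assay at pH 7.5 (0.1 M NaH2PO4, 1% DMSO, room temperature), run at least three times per compound. Compound was premixed with 0.1 μg/well recombinant human KLK5 before adding 100 μM Boc-VPR-AMC; AMC release was read at ex 380/em 460 nm, and IC50 derived from inhibition of rate vs DMSO control.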
As for `Nc1nccc2c(-c3ccc4nn(C5CC(N)C5)c(COc5ccccc5CC(=O)O)c4c3)cccc12` (centres unmarked) [Compound 136b, 2-(2-((2-(3-aminocyclobutyl)-5-(1-aminoisoquinolin-5-yl)-2H-indazol-3-yl)methoxy)phenyl)acetic acid], the IC50 was in the range of 1000 to 10000 nM. Take `CC(C)(C)OC(=O)NC1CC(n2nc3ccc(-c4ccc5ccnc(N)c5c4)cc3c2COc2ccccc2CC(=O)O)C1` (centres unmarked) [Compound 137b, 2-(2-((5-(1-aminoisoquinolin-7-yl)-2-(3-(tert-butoxycarbonylamino)cyclobutyl)-2H-indazol-3-yl)methoxy)phenyl)acetic acid]: the IC50 fell in the range of 1000 to 10000 nM.

For `Nc1nccc2ccc(-c3ccc4nn(C5CC(N)C5)c(COc5ccccc5CC(=O)O)c4c3)cc12` (centres unmarked) [Compound 138b, 2-(2-((2-(3-aminocyclobutyl)-5-(1-aminoisoquinolin-7-yl)-2H-indazol-3-yl)methoxy)phenyl)acetic acid], the IC50 was in the range of 1000 to 10000 nM. For `CC(C)(C)OC(=O)N1CC(Cn2nc3ccc(-c4cccc5c(N)nccc45)cc3c2COc2ccccc2CC(=O)O)C1` [Compound 139f, 2-(2-((5-(1-aminoisoquinolin-5-yl)-2-((1-(tert-butoxycarbonyl)azetidin-3-yl)methyl)-2H-indazol-3-yl)methoxy)phenyl)acetic acid], the IC50 is under 1000 nM. Regarding `Nc1nccc2c(-c3ccc4nn(CC5CNC5)c(COc5ccccc5CC(=O)O)c4c3)cccc12` [Compound 140b, 2-(2-((5-(1-aminoisoquinolin-5-yl)-2-(azetidin-3-ylmethyl)-2H-indazol-3-yl)methoxy)phenyl)acetic acid], the half-inhibitory concentration (IC50) lay in the range of 1000 to 10000 nM. In the case of `CC(C)(C)OC(=O)N1CC(Cn2nc3ccc(-c4ccc5ccnc(N)c5c4)cc3c2COc2ccccc2CC(=O)O)C1` [Compound 141b, 2-(2-((5-(1-aminoisoquinolin-7-yl)-2-((1-(tert-butoxycarbonyl)azetidin-3-yl)methyl)-2H-indazol-3-yl)methoxy)phenyl)acetic acid] it was 1000 to 10000 nM. Turning to `CC(C)(C)OC(=O)N1CC(n2nc(COc3ccccc3CC(=O)O)c3cc(-c4cccc5c(N)nccc45)ccc32)C1` [Compound 142b, 2-(2-((5-(1-aminoisoquinolin-5-yl)-1-(1-(tert-butoxycarbonyl)azetidin-3-yl)-1H-indazol-3-yl)methoxy)phenyl)acetic acid], the IC50 is under 1000 nM.

With `COCCN1CC(n2nc(COc3ccccc3CC(=O)O)c3cc(-c4cccc5c(N)nccc45)ccc32)C1` [Compound 143d, 2-(2-((5-(1-aminoisoquinolin-5-yl)-1-(1-(2-methoxyethyl)azetidin-3-yl)-1H-indazol-3-yl)methoxy)phenyl)acetic acid], the IC50 is under 1000 nM. For the compound `CC(C)CCN1CC(n2nc(COc3ccccc3CC(=O)O)c3cc(-c4cccc5c(N)nccc45)ccc32)C1` [Compound 144c, 2-(2-((5-(1-aminoisoquinolin-5-yl)-1-(1-isopentylazetidin-3-yl)-1H-indazol-3-yl)methoxy)phenyl)acetic acid], the IC50 is under 1000 nM. With `COCCN1CC(n2nc(COc3ccccc3CC(=O)O)c3cc(-c4ccc5ccnc(N)c5c4)ccc32)C1` [Compound 145b, 2-(2-((5-(1-aminoisoquinolin-7-yl)-1-(1-(2-methoxyethyl)azetidin-3-yl)-1H-indazol-3-yl)methoxy)phenyl)acetic acid] the figure was under 1000 nM. `CC(C)CCN1CC(n2nc(COc3ccccc3CC(=O)O)c3cc(-c4ccc5ccnc(N)c5c4)ccc32)C1` [Compound 146b, 2-(2-((5-(1-aminoisoquinolin-7-yl)-1-(1-isopentylazetidin-3-yl)-1H-indazol-3-yl)methoxy)phenyl)acetic acid]: the IC50 was under 1000 nM.

As to `Nc1nccc2c(-c3ccc4c(c3)c(COc3ccccc3CC(=O)O)nn4C3CN(CCO)C3)cccc12` [Compound 147c, 2-(2-((5-(1-aminoisoquinolin-5-yl)-1-(1-(2-hydroxyethyl)azetidin-3-yl)-1H-indazol-3-yl)methoxy)phenyl)acetic acid], the IC50 is under 1000 nM. As to `Nc1nccc2ccc(-c3ccc4c(c3)c(COc3ccccc3CC(=O)O)nn4C3CN(CCO)C3)cc12` [Compound 148b, 2-(2-((5-(1-aminoisoquinolin-7-yl)-1-(1-(2-hydroxyethyl)azetidin-3-yl)-1H-indazol-3-yl)methoxy)phenyl)acetic acid], the IC50 is under 1000 nM. With `Nc1nccc2ccc(-c3ccc4nn(C5CCC5)c(COc5cc(F)ccc5CC(=O)O)c4c3)cc12` [Compound 149d, 2-(2-((5-(1-aminoisoquinolin-7-yl)-2-cyclobutyl-2H-indazol-3-yl)methoxy)-4-fluorophenyl)acetic acid], the IC50 was 1000 to 10000 nM. On to `Nc1nccc2c(-c3ccc4nn(C5CCC5)c(COc5cc(F)ccc5CC(=O)O)c4c3)cccc12` [Compound 150b, 2-(2-((5-(1-aminoisoquinolin-5-yl)-2-cyclobutyl-2H-indazol-3-yl)methoxy)-4-fluorophenyl)acetic acid], for which the IC50 was under 1000 nM.

Consider `Nc1nccc2ccc(-c3ccc4nn(C5CCC5)c(COc5cc(C(F)(F)F)ccc5CC(=O)O)c4c3)cc12` [Compound 151d, 2-(2-((5-(1-aminoisoquinolin-7-yl)-2-cyclobutyl-2H-indazol-3-yl)methoxy)-4-(trifluoromethyl)phenyl)acetic acid], for which the IC50 was over 10000 nM. In the case of `Nc1nccc2c(-c3ccc4nn(C5CCC5)c(COc5cc(C(F)(F)F)ccc5CC(=O)O)c4c3)cccc12` [Compound 152b, 2-(2-((5-(1-aminoisoquinolin-5-yl)-2-cyclobutyl-2H-indazol-3-yl)methoxy)-4-(trifluoromethyl)phenyl)acetic acid] it was 1000 to 10000 nM; in that of `Nc1nccc2ccc(-c3ccc4nn(C5CCC5)c(COc5cc(OC(F)(F)F)ccc5CC(=O)O)c4c3)cc12` [Compound 153d, 2-(2-((5-(1-aminoisoquinolin-7-yl)-2-cyclobutyl-2H-indazol-3-yl)methoxy)-4-(trifluoromethoxy)phenyl)acetic acid], over 10000 nM; in that of `Nc1nccc2c(-c3ccc4nn(C5CCC5)c(COc5cc(OC(F)(F)F)ccc5CC(=O)O)c4c3)cccc12` [Compound 154b, 2-(2-((5-(1-aminoisoquinolin-5-yl)-2-cyclobutyl-2H-indazol-3-yl)methoxy)-4-(trifluoromethoxy)phenyl)acetic acid], 1000 to 10000 nM. With `Cc1ccc(OCc2c3cc(-c4ccc5ccnc(N)c5c4)ccc3nn2C2CCC2)c(CC(=O)O)c1` [Compound 155d, 2-(2-((5-(1-aminoisoquinolin-7-yl)-2-cyclobutyl-2H-indazol-3-yl)methoxy)-5-methylphenyl)acetic acid] the figure was 1000 to 10000 nM; with `Cc1ccc(OCc2c3cc(-c4cccc5c(N)nccc45)ccc3nn2C2CCC2)c(CC(=O)O)c1` [Compound 156b, 2-(2-((5-(1-aminoisoquinolin-5-yl)-2-cyclobutyl-2H-indazol-3-yl)methoxy)-5-methylphenyl)acetic acid], 1000 to 10000 nM. Turning to `COc1ccc(OCc2c3cc(-c4ccc5ccnc(N)c5c4)ccc3nn2C2CCC2)c(CC(=O)O)c1` [Compound 157d, 2-(2-((5-(1-aminoisoquinolin-7-yl)-2-cyclobutyl-2H-indazol-3-yl)methoxy)-5-methoxyphenyl)acetic acid], the IC50 was 1000 to 10000 nM.

Turning to `COc1ccc(OCc2c3cc(-c4cccc5c(N)nccc45)ccc3nn2C2CCC2)c(CC(=O)O)c1` [Compound 158b, 2-(2-((5-(1-aminoisoquinolin-5-yl)-2-cyclobutyl-2H-indazol-3-yl)methoxy)-5-methoxyphenyl)acetic acid], the IC50 was 1000 to 10000 nM. Take `Cc1cccc(CC(=O)O)c1OCc1nn(C2CCC2)c2ccc(-c3ccc4ccnc(N)c4c3)cc12` [Compound 159g, 2-(2-((5-(1-aminoisoquinolin-7-yl)-1-cyclobutyl-1H-indazol-3-yl)methoxy)-3-methylphenyl)acetic acid]: the IC50 lay within 1000 to 10000 nM. Turning to `Cc1cccc(CC(=O)O)c1OCc1nn(C2CCC2)c2ccc(-c3cccc4c(N)nccc34)cc12` [Compound 160b, 2-(2-((5-(1-aminoisoquinolin-5-yl)-1-cyclobutyl-1H-indazol-3-yl)methoxy)-3-methylphenyl)acetic acid], the IC50 fell in the range of 1000 to 10000 nM. As for `Cc1cccc(OCc2nn(C3CCC3)c3ccc(-c4ccc5ccnc(N)c5c4)cc23)c1CC(=O)O` [Compound 161c, 2-(2-((5-(1-aminoisoquinolin-7-yl)-1-cyclobutyl-1H-indazol-3-yl)methoxy)-6-methylphenyl)acetic acid], the IC50 is under 1000 nM. As for `Cc1cccc(OCc2nn(C3CCC3)c3ccc(-c4cccc5c(N)nccc45)cc23)c1CC(=O)O` [Compound 162b, 2-(2-((5-(1-aminoisoquinolin-5-yl)-1-cyclobutyl-1H-indazol-3-yl)methoxy)-6-methylphenyl)acetic acid], the IC50 was under 1000 nM. For the compound `Cc1ccc(CC(=O)O)c(OCc2nn(C3CCC3)c3ccc(-c4cccc5c(N)nccc45)cc23)c1` [Compound 163c, 2-(2-((5-(1-aminoisoquinolin-5-yl)-1-cyclobutyl-1H-indazol-3-yl)methoxy)-4-methylphenyl)acetic acid], the IC50 is under 1000 nM. Take `Cc1ccc(OCc2nn(C3CCC3)c3ccc(-c4ccc5ccnc(N)c5c4)cc23)c(CC(=O)O)c1` [Compound 164c, 2-(2-((5-(1-aminoisoquinolin-7-yl)-1-cyclobutyl-1H-indazol-3-yl)methoxy)-5-methylphenyl)acetic acid]: the IC50 fell in the range of 1000 to 10000 nM.

The IC50 is the concentration at which inhibition is half-maximal.

Source of the values: patent US20240239752A1, “BICYCLIC HETEROAROMATIC INHIBITORS OF KLK5” (BioCryst Pharmaceuticals, Inc., priority 2021, published 2024).
